Ki data for nine compounds are collected here from ChEMBL document CHEMBL1140874, “Ligand-based and structure-based virtual screening to identify carbonic anhydrase IX inhibitors” (Bioorg Med Chem, 2009).

Among the targets are Carbonic anhydrase 9 (Homo sapiens, UniProt Q16790); Carbonic anhydrase 1 (Homo sapiens, UniProt P00915); Carbonic anhydrase 2 (Homo sapiens, UniProt P00918).

Chain of Carbonic anhydrase 1 (P00915 whole entry): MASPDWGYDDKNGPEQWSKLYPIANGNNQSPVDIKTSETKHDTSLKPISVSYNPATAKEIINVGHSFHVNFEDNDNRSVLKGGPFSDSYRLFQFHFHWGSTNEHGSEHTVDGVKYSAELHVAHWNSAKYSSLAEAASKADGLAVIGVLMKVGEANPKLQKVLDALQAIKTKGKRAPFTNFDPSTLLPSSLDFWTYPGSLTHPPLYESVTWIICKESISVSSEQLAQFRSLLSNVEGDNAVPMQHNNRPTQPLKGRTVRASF

The Ki is a dissociation constant, usually derived from enzyme kinetics or from competition with a known ligand. A lower Ki goes with higher affinity. `N#Cc1c(N)n(-c2cccc(S(N)(=O)=O)c2)c2nc3ccccc3nc12`: affinity on Carbonic anhydrase 9 was put at a Ki of 0.3 µM.
Turning to `C=CCn1c(SCC(=O)Nc2ccc(S(N)(=O)=O)cc2)nc2sc3c(c2c1=O)CCCC3`, the inhibition constant (Ki) at Carbonic anhydrase 1 is 15 µM; at Carbonic anhydrase 2, 0.33 µM; at Carbonic anhydrase 9 it was 2.75 µM.
As to `CC1CCN(N(CCCC(=O)Nc2ccc(S(N)(=O)=O)cc2)N2CCC(C)CC2)CC1`, the Ki is 0.265 µM on Carbonic anhydrase 2 and 0.09 µM at Carbonic anhydrase 9.
On Carbonic anhydrase 2, `NS(=O)(=O)c1ccc(CCNC(=S)Nc2ccc(C(=O)O)cc2)cc1` showed an inhibitory constant (Ki) of 0.38 µM.
Consider `NS(=O)(=O)c1ccc(CCNC(=O)CN2C(=O)c3ccccc3C2=O)cc1`, for which the affinity on Carbonic anhydrase 9 corresponds to a Ki of 0.29 µM.
For the compound `NS(=O)(=O)c1ccc(CNC(=O)NC2CC2c2ccccc2)cc1` (centres undefined), the figures for the Ki on Carbonic anhydrase 2 and at Carbonic anhydrase 9 were 2.61 µM and 1.84 µM, respectively.
Take `NS(=O)(=O)c1ccc(CCNC(=O)c2sc3ccccc3c2Cl)cc1`: the Ki at Carbonic anhydrase 9 was determined as 1.07 µM.
As to `NS(=O)(=O)c1ccc(CNS(=O)(=O)c2ccc(F)cc2)cc1`, the Ki at Carbonic anhydrase 2 turned out to be 0.1 µM; at Carbonic anhydrase 9, 0.29 µM.
As for `NS(=O)(=O)Oc1ccc(OS(N)(=O)=O)cc1`, on Carbonic anhydrase 2, the inhibitory constant (Ki) worked out at 0.643 µM.
